# Laboratory results as given in PubChem BioAssay (NCI).
#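 Interpolation was linear, between the two tested concentrations surrounding the appropriate level; five concentrations were tested over 48 hours in 96-well plates. At the TGI there is no net growth.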
# Experiments:
# Assay in all cases: NCI tumour cell line growth inhibition, 48 h
# [1] = tested on: NCI-H522 lung
# [2] = tested on: SK-MEL-2 melanoma
# [3] = tested on: BT-549 breast
# [4] = tested on: ACHN renal
# [5] = tested on: M14 melanoma
# [6] = tested on: OVCAR-5 ovarian
# [7] = tested on: HOP-92 NSCLC
# [8] = tested on: LOX IMVI melanoma
# [9] = tested on: OVCAR-8 ovarian
# [10] = tested on: HL-60(TB) leukemia
# [11] = tested on: 786-0 renal
# [12] = tested on: MOLT-4 leukemia
# [13] = tested on: MCF7 breast
# [14] = tested on: DU-145 prostate
# [15] = tested on: SF-539 CNS
# [16] = tested on: RPMI-8226 leukemia
# [17] = tested on: U251 CNS
# [18] = tested on: OVCAR-4 ovarian
# [19] = tested on: SR leukemia
# [20] = tested on: IGROV1 ovarian
# [21] = tested on: MDA-N
# [22] = tested on: SK-MEL-5 melanoma
# [23] = tested on: NCI-H23 lung
# [24] = tested on: SNB-19 CNS
# [25] = tested on: MDA-MB-435
# [26] = tested on: HT29 colon
# [27] = tested on: UACC-62 melanoma
# [28] = tested on: SF-295 CNS
# [29] = tested on: SW-620 colon
# [30] = tested on: UO-31 renal
# [31] = tested on: T-47D breast
# [32] = tested on: SK-OV-3 ovarian
# [33] = tested on: HCT-116 colon
# [34] = tested on: NCI-H460 lung
# [35] = tested on: SF-268 CNS
# [36] = tested on: HCT-15 colon
# [37] = tested on: NCI-H226 lung
# [38] = tested on: OVCAR-3 ovarian
# [39] = tested on: MDA-MB-231 breast
# [40] = tested on: HS 578T breast
# [41] = tested on: SN12C renal
# [42] = tested on: COLO 205 colon
# [43] = tested on: CCRF-CEM leukemia
# [44] = tested on: NCI/ADR-RES ovarian
# [45] = tested on: KM12 colon
# [46] = tested on: EKVX NSCLC
# [47] = tested on: CAKI-1 renal
# [48] = tested on: RXF 393 renal
# [49] = tested on: PC-3 prostate
# [50] = tested on: A549 NSCLC
# [51] = tested on: A498 renal
# [52] = tested on: UACC-257 melanoma
# [53] = tested on: TK-10 renal
# [54] = tested on: SNB-75 CNS
# [55] = tested on: MALME-3M melanoma
# [56] = tested on: HCC-2998 colon
# [57] = tested on: SK-MEL-28 melanoma
# [58] = tested on: K-562 leukemia
smiles,measurement,setting,value
COc1cc2c3c(c1O)-c1c(ccc(OC)c1OC)CC3N(C)CC2 (stereo not given),TGI,[1],> 100 µM
same,TGI,[2],> 100 µM
same,TGI,[3],> 100 µM
same,TGI,[4],> 100 µM
same,TGI,[5],> 100 µM
same,TGI,[6],> 100 µM
same,TGI,[7],> 100 µM
same,TGI,[8],> 100 µM
same,TGI,[9],> 100 µM
same,TGI,[10],> 100 µM
same,TGI,[11],> 100 µM
same,TGI,[12],> 100 µM
same,TGI,[13],> 100 µM
same,TGI,[14],> 100 µM
same,TGI,[15],> 100 µM
same,TGI,[16],> 100 µM
same,TGI,[17],> 100 µM
same,TGI,[18],> 100 µM
same,TGI,[19],> 100 µM
same,TGI,[20],> 100 µM
same,TGI,[21],> 100 µM
same,TGI,[22],> 100 µM
same,TGI,[23],> 100 µM
same,TGI,[24],> 100 µM
same,TGI,[25],> 100 µM
same,TGI,[26],> 100 µM
same,TGI,[27],> 100 µM
same,TGI,[28],> 100 µM
same,TGI,[29],> 100 µM
same,TGI,[30],> 100 µM
same,TGI,[31],> 100 µM
same,TGI,[32],> 100 µM
same,TGI,[33],> 100 µM
same,TGI,[34],> 100 µM
same,TGI,[35],> 100 µM
same,TGI,[36],> 100 µM
same,TGI,[37],> 100 µM
same,TGI,[38],> 100 µM
same,TGI,[39],> 100 µM
same,TGI,[40],> 100 µM
same,TGI,[41],> 100 µM
same,TGI,[42],> 100 µM
same,TGI,[43],> 100 µM
same,TGI,[44],> 100 µM
same,TGI,[45],> 100 µM
same,TGI,[46],> 100 µM
same,TGI,[47],> 100 µM
same,TGI,[48],> 100 µM
same,TGI,[49],> 100 µM
same,TGI,[50],> 100 µM
same,TGI,[51],> 100 µM
same,TGI,[52],> 100 µM
same,TGI,[53],> 100 µM
same,TGI,[54],> 100 µM
O=C(N=Nc1c(O)[nH]c2ccccc12)C(O)(c1ccccc1)c1ccccc1,TGI,[55],46.5 µM
same,TGI,[2],31.8 µM
same,TGI,[3],28.9 µM
same,TGI,[4],> 100 µM
same,TGI,[5],30.4 µM
same,TGI,[6],31.5 µM
same,TGI,[7],49.7 µM
same,TGI,[8],31.4 µM
same,TGI,[9],67.3 µM
same,TGI,[10],69 µM
same,TGI,[11],> 100 µM
same,TGI,[12],> 100 µM
same,TGI,[13],56.4 µM
same,TGI,[56],27.9 µM
same,TGI,[14],73.9 µM
same,TGI,[15],29.6 µM
same,TGI,[16],62 µM
same,TGI,[17],35.3 µM
same,TGI,[18],50.9 µM
same,TGI,[19],79.4 µM
same,TGI,[57],33.9 µM
same,TGI,[20],39.6 µM
same,TGI,[21],34 µM
same,TGI,[22],29.7 µM
same,TGI,[23],30.1 µM
same,TGI,[24],34.2 µM
same,TGI,[25],31.8 µM
same,TGI,[26],37.2 µM
same,TGI,[27],30.1 µM
same,TGI,[28],36.3 µM
same,TGI,[29],34 µM
same,TGI,[30],29.8 µM
same,TGI,[31],68.8 µM
same,TGI,[32],56.6 µM
same,TGI,[33],37.5 µM
same,TGI,[34],34.7 µM
same,TGI,[35],87.9 µM
same,TGI,[36],30.3 µM
same,TGI,[37],43.8 µM
same,TGI,[38],36.3 µM
same,TGI,[39],35.5 µM
same,TGI,[40],66.6 µM
same,TGI,[58],89.8 µM
same,TGI,[42],33.3 µM
same,TGI,[43],> 100 µM
same,TGI,[44],84.6 µM
same,TGI,[45],35.4 µM
same,TGI,[46],> 100 µM
same,TGI,[47],> 100 µM
same,TGI,[48],28.3 µM
same,TGI,[49],38.5 µM
same,TGI,[50],42.1 µM
same,TGI,[51],36 µM
same,TGI,[52],56.3 µM
same,TGI,[53],99.3 µM
same,TGI,[54],43.6 µM
